How the values were obtained:
[1] = test system: Non-small cell lung cancer xenografts; assay: Doxorubicin levels in tumor tissue and tumor cell nuclei (spectrofluorometry); type: in vivo, SCID mice; settings: 2 mg/kg doxorubicin
Protocol: Non-small cell lung cancer xenografts (˜300 mm^3) were induced in SCID mice following the method described in Example 2 above. These mice were treated with PIVO-2-LD, PIVO-8-LD, PIVO-24-LD, LD, and FD at a doxorubicin dose of 2 mg/kg and sacrificed 1 h, 4 h, or 24 h later. Blood samples were collected from the mice via submaxillary punctures and plasma samples were prepared therefrom. In addition, xenografts and normal organs were removed, part of them being homogenized to isolate cell nuclei. Doxorubicin was extracted either from the tumor tissue or from the nuclei following the method described in Laginha et al., Clin. Cancer Res. 11:6944-6949, 2005 and Mayer et al., J. Pharmacol. Exp. Ther. 280:1406-1414, 1997. The amount of doxorubicin was determined by spectrofluorometry at λex 485/20 nm and λcm 645/40 nm (Synergy HT Multi-Detection Microplate Reader, BioTek Instruments, Winooski, Vt. 05404 USA). Based on the amounts of doxorubicin in tumor tissues at different time points, concentration-time curves of doxorubicin were prepared and the areas under the curves from 0-48 hours (AUC0-48 hours) were determined.

tumor xenografts = assay: Histopathology of tumor tissues by H&E staining; type: in vivo, SCID mice; settings: doxorubicin 1 mg/kg twice a week for four weeks
Protocol: Mouse body weights and tumor lengths/widths were measured twice a week with calipers. The volume of a tumor was calculated using the formula: length×(width)×0.52.

[2] = test system: H460 cells (lung cancer) xenografts; assay: In vivo homing of phage clones to lung cancer xenografts, alone or with synthetic peptide (phage titer); design: species or system SCID mice; settings: 100 μg synthetic peptide co-injected
Protocol: Eight minutes after the injection, the phage-treated SCID mice were perfused with 50 ml PBS to wash away phage particles unbound to tissues. Normal organs (e.g., lung, heart, brain) and tumor mass were removed from the mice, weighed, washed with PBS, and homogenized to release tissue-bound phage particles, if any. The released phage particles were titered using bacterium ER2738 (New England BioLabs, MA, USA) grown on IPTG-X-gal-containing agar plates, and amplified in the same bacterium following the manufacturer's protocol.
H460 cells (a lung cancer cell line) were injected subcutaneously (s.c.) into the dorsolateral flanks of SCID mice (4-6 weeks of age) to form lung cancer xenografts. Each of phage clones IVO 2, IVO 8, and IVO 24, displaying peptide SVSVGMKPSPRP (SEQ ID NO:1), SNPFSKPYGLTV (SEQ ID NO:3), and YPHYSLPGSSTL (SEQ ID NO:5), respectively, was injected (i.v.) into the tail veins of the mice bearing the xenografts (˜100 mm^3), either alone or with 100 μg synthetic peptides SVSVGMKPSPRP (SEQ ID NO:1), SNPFSKPYGLTV (SEQ ID NO:3), or YPHYSLPGSSTL (SEQ ID NO:5). Normal organs and tumor mass were removed from these mice and processed as described in Example 1 above. The phage titers in the normal organs and tumor mass were determined following the procedure also described in Example 1.

[3] = test system: lung tumor xenografts, tumor neovasculature; assay: Immuno-staining of phage (anti-M13) and blood vessels (anti-CD31) in lung tumor xenografts and normal organs; type: in vivo, SCID mice
Text: The accumulation of the phage clones in tumor mass was further examined by an immuno-staining assay, using an anti-M13 phage monoclonal antibody (Amersham Biosciences, Uppsala, Sweden). Briefly, after injection of the phage clones, normal organ samples and tumor samples were obtained, each divided into two parts. Bound phage particles were released from one part of the samples and titered using bacterium ER2738. The other part of each of the samples was embedded in Optimal Cutting Temperature (OCT, Tissue-Tek, NL, USA). The OCT-embedded samples (frozen) were sectioned (5 micron) and transferred to cold PBS. The sections were fixed with acetone-methanol (1:1) on slides, washed with PBS, and immersed in a blocking buffer (1% BSA in PBS) for 1 h. Then, the slides were incubated with rat anti-mouse CD31 antibody (an antibody recognizing blood vessels; BD Pharmingen, MA, USA.) and rabbit anti-rat Ig antibody (Stressgen, Canada), and immersed in Rhodamine labeled goat anti-rabbit Ig antibody (Jackson ImmunoResearch, PA, USA). The slides were further incubated with mouse anti-M13 phage monoclonal antibody (Amersham Biosciences, Uppsala, Sweden), then with FITC-labeled goat anti-mouse Ig antibody (Jackson ImmunoResearch, PA, USA), and finally immersed in a solution containing Hoechst 33258 (Molecular Probe, OR, USA). After being washed and mounted with a mounting medium (Vector, Calif., USA), the slides were examined under a Leica Confocal Microscope (TCS-SP5-AOBS). Images of the slides were processed with the Leica Application Suite Advanced Fluorescence software.

| Compound | Nucleus (AUC0-48 h) doxorubicin ([1]; tumor cell nuclei (bioavailable doxorubicin)) [µg·h/g] | Tumor (AUC0-48 h) doxorubicin ([1]; tumor tissue) [µg·h/g] | necrotic/apoptotic area (combined) in tumor xenografts (tumor xenografts) | inhibition by synthetic peptide of accumulation in tumor mass of the phage clone displaying the same peptide [2] | blocking by synthetic peptide of binding of the corresponding phage clone to lung tumor tissues [3] |
| --- | --- | --- | --- | --- | --- |
| COc1cccc2c1C(=O)c1c(O)c3c(c(O)c1C2=O)C[C@@](O)(C(=O)CO)C[C@@H]3O[C@H]1C[C@H](N)[C@H](O)[C@H](C)O1 [FD, doxorubicin] | 3.68 | 10.23 | only a moderate necrotic/apoptotic area | – | – |
| SNPFSKPYGLTV (Tumor-Targeting Peptide) | – | – | – | inhibited accumulation | blocked binding |
| SVSVGMKPSPRP (Tumor-Targeting Peptide) | – | – | – | inhibited accumulation of phage clone IVO 2 | blocked binding |
| YPHYSLPGSSTL (Tumor-Targeting Peptide) | – | – | – | inhibited accumulation | blocked binding |

— US8394758B2, “Tumor-targeting peptides and uses thereof” (Academia Sinica, priority 2008, dated 2013)
